Data: ChEMBL document CHEMBL1201862, “PubChem BioAssay data set” (2004)
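Five compound concentrations were applied to cells in 96-well plates for 48 hours; endpoints were derived by simple linear interpolation of the resulting dose-response curve. GI50: concentration for 50% inhibition of growth.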 Activity calls are given as the source filed them. Rule as the data show it: active = GI50 up to about 1.1 µM and inactive = higher.

Key:
Experiment in all cases: inhibition of tumour cell growth, NCI panel, 48 h
A549 = system: A549
HT-29 = system: HT-29
IGROV-1 = system: IGROV-1
KM12 = system: KM12
MOLT-4 = system: MOLT-4
Malme-3M = system: Malme-3M
OVCAR-3 = system: OVCAR-3
OVCAR-5 = system: OVCAR-5
SF-268 = system: SF-268
SK-MEL-2 = system: SK-MEL-2
SN12C = system: SN12C
SNB-75 = system: SNB-75
TK-10 = system: TK-10
UACC-62 = system: UACC-62
UO-31 = system: UO-31
NCI-H226 = system: NCI-H226
NCI-H522 = system: NCI-H522
SR = system: SR

Row | Compound | GI50 (A549) | GI50 (HT-29) | GI50 (IGROV-1) | GI50 (KM12) | GI50 (MOLT-4) | GI50 (Malme-3M) | GI50 (OVCAR-3) | GI50 (OVCAR-5) | GI50 (SF-268) | GI50 (SK-MEL-2) | GI50 (SN12C) | GI50 (SNB-75) | GI50 (TK-10) | GI50 (UACC-62) | GI50 (UO-31) | GI50 (NCI-H226) | GI50 (NCI-H522) | GI50 (SR)
1 | NC1=NC(=O)C(CC(=O)Nc2ccc(Cl)cc2Cl)S1 (centres undefined) | > 100 µM (inactive) | > 100 µM (inactive) | > 100 µM (inactive) | > 100 µM (inactive) | 48.4 µM (inactive) | > 100 µM (inactive) | > 100 µM (inactive) | > 100 µM (inactive) | > 100 µM (inactive) | > 100 µM (inactive) | > 100 µM (inactive) | > 100 µM (inactive) | > 100 µM (inactive) | > 100 µM (inactive) | > 100 µM (inactive) | – | – | –
2 | C#CCNC(=O)NCCCCC(NC(=O)OCc1ccccc1)C(=O)OCc1ccccc1 (centres undefined) | 72.4 µM (inactive) | 75.3 µM (inactive) | > 100 µM (inactive) | 29.8 µM (inactive) | 22.2 µM (inactive) | > 100 µM (inactive) | 59.7 µM (inactive) | > 100 µM (inactive) | – | > 96.2 µM (inactive) | > 83.8 µM (inactive) | > 72.4 µM (inactive) | > 100 µM (inactive) | 63.5 µM (inactive) | > 48.4 µM (inactive) | > 100 µM (inactive) | 22.3 µM (inactive) | 45 µM (inactive)
3 | CC(=O)Oc1cc2c[n+](C)c3c4cc(OC(C)=O)c(OC(C)=O)cc4ccc3c2cc1OC(C)=O | 12.8 µM (inactive) | 2.72 µM (inactive) | 2.49 µM (inactive) | 5.46 µM (inactive) | – | 2.39 µM (inactive) | 2.24 µM (inactive) | 17.3 µM (inactive) | 0.407 µM (active) | – | 3.43 µM (inactive) | – | > 100 µM (inactive) | 3.97 µM (inactive) | 1.36 µM (inactive) | 1.54 µM (inactive) | 0.647 µM (active) | 2.22 µM (inactive)
4 | COc1cc(C(O)C(=O)c2nc3ccc([N+](=O)[O-])cc3nc2O)ccc1O (centres undefined) | 98.9 µM (inactive) | > 100 µM (inactive) | > 100 µM (inactive) | > 100 µM (inactive) | > 100 µM (inactive) | > 100 µM (inactive) | > 100 µM (inactive) | > 100 µM (inactive) | > 100 µM (inactive) | > 100 µM (inactive) | > 100 µM (inactive) | – | > 100 µM (inactive) | 73.1 µM (inactive) | > 100 µM (inactive) | > 100 µM (inactive) | 18.8 µM (inactive) | > 100 µM (inactive)
